From patent publication US8791113B2, “2,4-diaryl-substituted [1,8] naphthyridines as kinase inhibitors for use against cancer” (Merck Patent GmbH, priority 2010, dated 2014)

How the values were obtained:
[1] = target: T1, GST-ALK5 (TGF-beta receptor kinase) (Homo sapiens, UniProt P36897); experiment: In-vitro (enzyme) kinase flashplate assay: GST-ALK5 phosphorylation of GST-SMAD2 with 33P-ATP; type: biochemical; settings: 384-well flashplate kinase assay, GST-ALK5 / GST-SMAD2, 33P-ATP, 30° C., 45 min; read-out: TβR activity (Example 50)
T1 sequence (P36897 34-503): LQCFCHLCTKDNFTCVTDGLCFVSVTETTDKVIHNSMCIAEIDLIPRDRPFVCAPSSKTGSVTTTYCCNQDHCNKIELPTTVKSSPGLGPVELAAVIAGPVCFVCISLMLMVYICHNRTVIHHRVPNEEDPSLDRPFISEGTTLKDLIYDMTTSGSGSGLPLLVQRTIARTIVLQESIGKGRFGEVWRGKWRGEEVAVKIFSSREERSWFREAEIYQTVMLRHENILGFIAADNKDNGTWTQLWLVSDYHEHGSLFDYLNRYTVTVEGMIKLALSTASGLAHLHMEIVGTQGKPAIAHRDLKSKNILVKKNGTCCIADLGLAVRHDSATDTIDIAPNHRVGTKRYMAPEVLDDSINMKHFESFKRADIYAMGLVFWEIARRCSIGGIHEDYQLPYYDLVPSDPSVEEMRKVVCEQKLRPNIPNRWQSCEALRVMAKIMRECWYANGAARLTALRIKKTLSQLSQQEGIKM
Summary of the method: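 Flashplate format: 31.2 nM GST-ALK5, 439 nM GST-SMAD2, 3 mM ATP with 33P-ATP in HEPES/MgCl2/MnCl2/DTT/BSA buffer, pH 7.4, 45 min at 30 °C, 5–10 compound concentrations. EDTA stop, saline washes, radioactivity counted. IC50 calculated from the counts.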

[2] = system: TGF-beta-induced phosphorylation of Smad2 (Ser465/467) and Smad3 (Ser423/425) in Mv1-Lu cells; experiment: Inhibition of Smad2/3 phosphorylation in Mv1Lu cells (PathScan Phospho-Smad2 ELISA); type: cell-based, mink Mustela vison; settings: Neogale vison, Mv1-Lu cells, TGF-beta 1 5 ng/ml, Phospho-Smad2/3 ELISA, read-out: TβR activity (Example 51)
Summary of the method: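 Serum-starved mink Mv1-Lu lung epithelial cells were pretreated with compound for 1.5 h, then stimulated 1 h with 5 ng/ml TGF-beta 1 (0.2% DMSO). Phospho-Smad2/3 in lysates was quantified by ELISA against stimulated and unstimulated controls. IC50 was taken from dose-response fits.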

Which IC50 [1] does the source give for Cc1ccn(-c2cc(-c3c[nH]c4cnccc34)c3cccnc3n2)n1 [Compound 118, 2-(3-Methyl-pyrazol-1-yl)-4-(1H-pyrrolo[2,3-c]pyridin-3-yl)-[1,8]naphthyridine] here?
The IC50 was less than 1000 nM.

What about the IC50 [2] of the same molecule?
The IC50 was less than 1000 nM.
